Measurements from ChEMBL document CHEMBL6092174, “Synthesis and anti-influenza virus activity of substituted dibenzoxepine-based baloxavir derivatives” (Eur J Med Chem, 2024).

test system: not listed separately; test: Metabolic stability in human liver microsomes assessed as half life at 1 uM in presence of NADPH by LC-MS/MS analysis; format: ADME, Microsome; settings: time 60 min

Row | SMILES | half-life at 1 µM [h]
1 | O=C(O)Cc1ccccc1Nc1c(Cl)cccc1Cl [DICLOFENAC] | 0.0938
2 | O=C1c2c(O)c(=O)ccn2N([C@@H]2c3ccccc3SCc3c2ccc(F)c3F)[C@@H]2COCCN12 [BALOXAVIR] | 3.03

test system: not listed separately; test: Cytotoxicity against dog MDCK cells assessed as reduction in cell viability incubated for 2 days by CCK-8 assay; format: toxicity, cell-based, Canis lupus familiaris; settings: time 2 day

Row | SMILES | CC50 at 48 h [nM]
3 | CCOC(=O)Cc1ccc2c(c1)[C@@H](N1[C@@H]3COCCN3C(=O)c3c(O)c(=O)ccn31)c1ccccc1CO2 | > 50000
4 | O=C1c2c(O)c(=O)ccn2N([C@@H]2c3ccccc3SCc3c2ccc(F)c3F)[C@@H]2COCCN12 [BALOXAVIR] | 9300

test system: not listed separately; test: Half life in CD-1 mouse at 1 mg/kg, iv measured upto 24 hrs by LC-MS/MS analysis; format: ADME, organism-based; settings: in vivo

Row | SMILES | half-life [h]
5 | O=C1c2c(O)c(=O)ccn2N([C@@H]2c3ccccc3SCc3c2ccc(F)c3F)[C@@H]2COCCN12 [BALOXAVIR] | 2.8

test system: Influenza B virus; test: Antiviral activity against Influenza B virus IBV/Lee/40 infected in dog MDCK cells assessed as reduction in cytopathic effect incubated for 2 days by TCID50 method; format: functional, organism-based; settings: IBV/Lee/40, MDCK, 48 h

Row | SMILES | EC50 [nM]
6 | O=C1c2c(O)c(=O)ccn2N([C@@H]2c3ccccc3SCc3c2ccc(F)c3F)[C@@H]2COCCN12 [BALOXAVIR] | 2.02

test system: not listed separately; test: Cmax in CD-1 mouse at 15 mg/kg, po measured upto 24 hrs by LC-MS/MS analysis; format: ADME, organism-based; settings: in vivo

Row | SMILES | Cmax [ng/mL]
7 | O=C1c2c(O)c(=O)ccn2N([C@@H]2c3ccccc3SCc3c2ccc(F)c3F)[C@@H]2COCCN12 [BALOXAVIR] | 523

test system: Influenza A virus; test: Antiviral activity against Influenza A virus H3N2 (A/Aichi/2/68) infected in dog MDCK cells assessed as reduction in cytopathic effect incubated for 2 days; format: functional, organism-based; settings: 48 h

Row | SMILES | EC50 [nM]
8 | CCOC(=O)Cc1ccc2c(c1)[C@@H](N1[C@@H]3COCCN3C(=O)c3c(O)c(=O)ccn31)c1ccccc1CO2 | 705

test system: not listed separately; test: Cmax in CD-1 mouse at 1 mg/kg, iv measured upto 24 hrs by LC-MS/MS analysis; format: ADME, organism-based; settings: in vivo

Row | SMILES | Cmax [ng/mL]
9 | O=C1c2c(O)c(=O)ccn2N([C@@H]2c3ccccc3SCc3c2ccc(F)c3F)[C@@H]2COCCN12 [BALOXAVIR] | 205

test system: not listed separately; test: Metabolic stability in human liver microsomes assessed as intrinsic clearance at 1 uM incubated for 60 mins in presence of NADPH by LC-MS/MS analysis; format: ADME, Microsome; settings: 1 h

Row | SMILES | CLint [µL/min/mg]
10 | O=C(O)Cc1ccccc1Nc1c(Cl)cccc1Cl [DICLOFENAC] | 246
11 | O=C1c2c(O)c(=O)ccn2N([C@@H]2c3ccccc3SCc3c2ccc(F)c3F)[C@@H]2COCCN12 [BALOXAVIR] | 7.6

test system: Influenza A virus; test: Antiviral activity against Influenza A virus H1N1(A/Puetro Rico/8/34) infected in dog MDCK cells assessed as reduction in cytopathic effect incubated for 2 days; format: functional, organism-based; settings: 48 h

Row | SMILES | EC50 [nM]
12 | O=C1c2c(O)c(=O)ccn2N([C@@H]2c3ccccc3SCc3c2ccc(F)c3F)[C@@H]2COCCN12 [BALOXAVIR] | 1.85

test system: not listed separately; test: Metabolic stability in mouse liver microsomes assessed as half life at 1 uM in presence of NADPH by LC-MS/MS analysis; format: ADME, Microsome; settings: time 60 min

Row | SMILES | half-life at 1 µM [h]
13 | O=C(O)Cc1ccccc1Nc1c(Cl)cccc1Cl [DICLOFENAC] | 0.672
14 | O=C1c2c(O)c(=O)ccn2N([C@@H]2c3ccccc3SCc3c2ccc(F)c3F)[C@@H]2COCCN12 [BALOXAVIR] | 2.68

test system: not listed separately; test: MRT (0 to infinity) in CD-1 mouse at 15 mg/kg, po measured upto 24 hrs by LC-MS/MS analysis; format: ADME, organism-based; settings: in vivo

Row | SMILES | MRT inf [h]
15 | O=C1c2c(O)c(=O)ccn2N([C@@H]2c3ccccc3SCc3c2ccc(F)c3F)[C@@H]2COCCN12 [BALOXAVIR] | 4.63

test system: HEK293T; test: Inhibition of Influenza A virus RdRp transfected in HEK293T co-expressing PB1/PB2/PA/NP/firefly luciferase/Renilla luciferase at 1 nM incubated for 24 hrs relative to control; format: cell-based; settings: not given

Row | SMILES | inhibition [%]
16 | O=C1c2c(O)c(=O)ccn2N([C@@H]2c3ccccc3SCc3c2ccc(F)c3F)[C@@H]2COCCN12 [BALOXAVIR] | 76.9

test system: not listed separately; test: MRT (0 to infinity) in CD-1 mouse at 1 mg/kg, iv measured upto 24 hrs by LC-MS/MS analysis; format: ADME, organism-based; settings: in vivo

Row | SMILES | MRT inf [h]
17 | O=C1c2c(O)c(=O)ccn2N([C@@H]2c3ccccc3SCc3c2ccc(F)c3F)[C@@H]2COCCN12 [BALOXAVIR] | 3

test system: not listed separately; test: Half life in CD-1 mouse at 15 mg/kg, po measured upto 24 hrs by LC-MS/MS analysis; format: ADME, organism-based; settings: in vivo

Row | SMILES | half-life [h]
18 | O=C1c2c(O)c(=O)ccn2N([C@@H]2c3ccccc3SCc3c2ccc(F)c3F)[C@@H]2COCCN12 [BALOXAVIR] | 3.78

test system: not listed separately; test: Selectivity index, ratio of CC50 for cytotoxicty against MDCK cells to EC50 for antiviral activity against Influenza A virus H3N2 (A/Aichi/2/68) infected in dog MDCK cells; format: toxicity, cell-based; settings: read-out: Selectivity Index

Row | SMILES | selectivity ratio
19 | CCOC(=O)Cc1ccc2c(c1)[C@@H](N1[C@@H]3COCCN3C(=O)c3c(O)c(=O)ccn31)c1ccccc1CO2 | > 71

test system: not listed separately; test: Tmax in CD-1 mouse at 1 mg/kg, iv measured upto 24 hrs by LC-MS/MS analysis; format: ADME, organism-based; settings: in vivo

Row | SMILES | Tmax [min]
20 | O=C1c2c(O)c(=O)ccn2N([C@@H]2c3ccccc3SCc3c2ccc(F)c3F)[C@@H]2COCCN12 [BALOXAVIR] | 4.8

test system: not listed separately; test: Metabolic stability in mouse liver microsomes assessed as intrinsic clearance at 1 uM incubated for 60 mins in presence of NADPH by LC-MS/MS analysis; format: ADME, Microsome; settings: 1 h

Row | SMILES | CLint [µL/min/mg]
21 | O=C(O)Cc1ccccc1Nc1c(Cl)cccc1Cl [DICLOFENAC] | 34.4
22 | O=C1c2c(O)c(=O)ccn2N([C@@H]2c3ccccc3SCc3c2ccc(F)c3F)[C@@H]2COCCN12 [BALOXAVIR] | 8.6

test system: not listed separately; test: Tmax in CD-1 mouse at 15 mg/kg, po measured upto 24 hrs by LC-MS/MS analysis; format: ADME, organism-based; settings: in vivo

Row | SMILES | Tmax [h]
23 | O=C1c2c(O)c(=O)ccn2N([C@@H]2c3ccccc3SCc3c2ccc(F)c3F)[C@@H]2COCCN12 [BALOXAVIR] | 1.67
